# Experimental data as given in publication PMC5442318, “Hundreds of dual-stage antimalarial molecules discovered by a functional gametocyte screen” (Nature Communications, 2017).
# Where two headings read alike, the source gives them in different places.
# Legend:
# [1] = tested on: P. falciparum stage V female gametocytes; test: P. falciparum female gametocyte activation assay (Pf FGAA), 24 h or 48 h preincubation, Pfs25 expression readout; assay type: cell-based, Plasmodium falciparum NF54; conditions: for Pf FGAA classification: SLOW / FAST / GAMETE from activity at 48h, 24h, 0h incubation
# How it was run: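 Purified stage V gametocytes from P. falciparum NF54 gametocyte cultures were exposed to compounds for 24 h or 48 h at 37 °C under 3% O2/5% CO2, then activated by temperature drop plus xanthurenic acid. Activated females were stained with Cy3-anti-Pfs25 (0.5 μg ml^−1) for 24 h at 26 °C and counted by high-content imaging; pIC50 by nonlinear regression.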
# [2] = tested on: P. falciparum female gametes; test: Pf FGAA with compounds added 30 min after triggering gametocyte activation (gamete-targeting); assay type: cell-based, Plasmodium falciparum NF54; conditions: 0h incubation time
# [3] = tested on: P. falciparum stages IV–V gametocytes; test: Gametocytocidal ATP-depletion assay (gametocyte ATP bioluminescence); assay type: cell-based, Plasmodium falciparum
# How it was run: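 Purified stage IV–V gametocytes (12,500/well) incubated with compound for 48 h at 37 °C under 3% O2/5% CO2. ATP measured by BacTiter-Glo luminescence as a viability surrogate; hits tested at 2 μM single concentration.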
# HepG2 cells = test: HepG2 cytotoxicity assay; assay type: cell-based
# How it was run: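 After compound incubation, plates and CellTiter-Glo reagent were brought to room temperature for 30 min. The reagent was then added, and luminescence was read after a 10 min room-temperature stabilization.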
# [4] = tested on: P. falciparum asexual blood stages; conditions: cited from earlier work; for IC50: read-out: Pf Asexual blood stages XC50
# [5] = 24h incubation time, read-out: Pf FGAA IC50 (µM) 24h
# [6] = mean, read-out: Gametocytes mean Pf FGAA IC50
# [7] = TCAMS data, ref 1 (Gamo et al., 2010)
# [8] = TCAMS data, ref 1 (Gamo, F. J. et al., Nature 465, 305-310, 2010)
# [9] = P. falciparum female gametocytes, mean, read-out: Gametocytes mean Pf FGAA IC50
# [10] = TCAMS asexual blood stage data, ref 1 (Gamo, F. J. et al., Nature 465, 305-310, 2010)
SMILES,"IC50 [1, 5] [µM]","IC50 [1, 6] [µM]",IC50 [2] [µM],"IC50 [1, 9] [µM]",Pf FGAA classification [1],Gametocytes mean ATP inhibition at 2µM (%) [3] [%],HepG2 cells mean TOX50 (HepG2 cells) [µM],"IC50 [4, 7] [µM]","Pf Asexual stages XC50 [4, 8] [µM]",Gametocytes mean ATP inhibition at 2µM [3] [%],HepG2 cells TOX50 (HepG2 cells; HepG2 cells) [µM],HepG2 cells mean TOX50 (HepG2 cells; HepG2 cells) [µM],"IC50 [4, 10] [µM]"
CCN1CCC2(c3cccc(OC)c3)Cc3nc4ccccc4c(-c4ccccc4)c3CC2C1 (stereo not drawn) [TCMDC-138968],> 20,1.43,> 20,–,SLOW,21.53,33.25,0.35,0.79,–,–,–,–
CN(C)CCNCc1cccc(-c2ccc3c(Nc4ccc(Oc5ccccn5)cc4)ccnc3c2)c1 [TCMDC-138493],2.58,0.82,2.27,–,GAMETE,38.43,3.98,0.23,0.23,–,–,–,–
c1ccn2c(Sc3ncnc4sccc34)ncc2c1 [TCMDC-124602],> 20,–,14.4,0.24,SLOW,–,–,–,0.66,12.16,>100,>100,0.66
O=C(Nc1nc(-c2ccccn2)cs1)c1ccc(S(=O)(=O)N2CCc3ccccc32)cc1 [TCMDC-125432],0.7,–,> 20,1.07,FAST,–,–,–,0.83,-8.57,–,29.22,0.83
Cc1ccc(-n2c(Sc3ncnc4sccc34)nnc2N2CCCC2)cc1 [TCMDC-125247],> 20,–,> 20,0.49,SLOW,–,–,–,0.26,22.13,–,89.13,0.26
CCCc1cc(=O)[nH]c(-n2nc(C)cc2NC(=O)CC(c2ccccc2)c2ccccc2)n1 [TCMDC-124940],0.41,–,> 20,1.3,FAST,–,–,–,0.51,0.055,>100,>100,0.62
CCN(CCNS(C)(=O)=O)c1ccc(N)c(C)c1.O.O=S(=O)(O)O [TCMDC-125836],0.3,–,3.56,1.14,FAST,–,–,–,0.88,7.23,–,26.14,0.88

# Second part, led by results:
"IC50 [1, 5] [µM]","IC50 [1, 6] [µM]",IC50 [2] [µM],"IC50 [1, 9] [µM]",SMILES,Pf FGAA classification [1],Gametocytes mean ATP inhibition at 2µM (%) [3] [%],HepG2 cells mean TOX50 (HepG2 cells) [µM],"IC50 [4, 7] [µM]","Pf Asexual stages XC50 [4, 8] [µM]",Gametocytes mean ATP inhibition at 2µM [3] [%],HepG2 cells TOX50 (HepG2 cells; HepG2 cells) [µM],HepG2 cells mean TOX50 (HepG2 cells; HepG2 cells) [µM],"IC50 [4, 10] [µM]"
0.79,0.84,0.49,–,CC(C)(CN)c1nc(-c2ccc(Br)c(O)c2)c(-c2ccncc2)[nH]1.Cl [TCMDC-140680],GAMETE,-3.29,45.82,0.96,0.39,–,–,–,–
1.88,0.91,13.5,–,COC(=O)c1ccc(-c2ccc(C(=O)NCC3CCN(c4nc(N)c5cc(OC)c(OC)cc5n4)CC3)cc2)cc1 [TCMDC-138721],FAST,31.66,6.10,0.19,0.19,–,–,–,–
6.18,0.69,> 20,–,Nc1ccc2[nH]cc(C3CCN(CC4CCC(NC(=O)/C=C/c5ccc(Cl)c(Cl)c5)CC4)CC3)c2n1 (stereo not drawn) [TCMDC-140064],SLOW,-8.60,12.59,0.73,0.73,–,–,–,–
15.5,1.74,> 20,–,CC(=O)Nc1ccc2[nH]cc(C3CCN(CC4CCC(NC(=O)/C=C/c5ccc(Cl)c(Cl)c5)CC4)CC3)c2n1 (stereo not drawn) [TCMDC-140114],SLOW,-7.40,13.49,0.26,0.26,–,–,–,–
